From ChEMBL document CHEMBL1201862, “PubChem BioAssay data set” (2004)
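All cell lines were grown in 96-well plates and treated with compound for 48 hours. GI50 marks 50% less growth.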 Active and inactive are the calls of the source. No stated cut-off is given here; in the data, active = GI50 up to about 1.1 µM and inactive = higher.

What was measured:
Assay in all cases: DTP human tumour cell line panel, 48 h
OVCAR-5 = tested on: OVCAR-5
IGROV-1 = tested on: IGROV-1
786-0 = tested on: 786-0
SR = tested on: SR
SW-620 = tested on: SW-620
HT-29 = tested on: HT-29
SF-539 = tested on: SF-539
CCRF-CEM = tested on: CCRF-CEM
PC-3 = tested on: PC-3
HCT-116 = tested on: HCT-116
ACHN = tested on: ACHN
SK-MEL-28 = tested on: SK-MEL-28
MDA-MB-231 = tested on: MDA-MB-231
Malme-3M = tested on: Malme-3M
KM12 = tested on: KM12
DU-145 = tested on: DU-145
MCF7 = tested on: MCF7
RXF 393 = tested on: RXF 393
HCC 2998 = tested on: HCC 2998
M14 = tested on: M14

Compound | GI50 (OVCAR-5) | GI50 (IGROV-1) | GI50 (786-0) | GI50 (SR) | GI50 (SW-620) | GI50 (HT-29) | GI50 (SF-539) | GI50 (CCRF-CEM) | GI50 (PC-3) | GI50 (HCT-116) | GI50 (ACHN) | GI50 (SK-MEL-28) | GI50 (MDA-MB-231) | GI50 (Malme-3M) | GI50 (KM12) | GI50 (DU-145) | GI50 (MCF7) | GI50 (RXF 393) | GI50 (HCC 2998) | GI50 (M14)
O=C(Nc1ccccc1)OCCN=C1c2ccccc2CCc2ccccc21 | 28.7 µM (inactive) | 19.1 µM (inactive) | 32.6 µM (inactive) | 12.2 µM (inactive) | 35 µM (inactive) | 18.5 µM (inactive) | 18.2 µM (inactive) | 20.6 µM (inactive) | 19.6 µM (inactive) | 14.6 µM (inactive) | 15.4 µM (inactive) | 15.4 µM (inactive) | 15.1 µM (inactive) | 22.5 µM (inactive) | 14.3 µM (inactive) | 24.5 µM (inactive) | 24 µM (inactive) | 19.4 µM (inactive) | 27.5 µM (inactive) | 21.8 µM (inactive)
CCCCn1c2c(n(CCCC)c1=S)-c1c(n(CCCC)c(=S)n1CCCC)SSSS2 | 0.362 µM (active) | 0.7 µM (active) | 1.38 µM (inactive) | 0.397 µM (active) | 0.348 µM (active) | 2.26 µM (inactive) | 0.783 µM (active) | 0.0957 µM (active) | 0.414 µM (active) | 2.24 µM (inactive) | 0.966 µM (active) | 9.02 µM (inactive) | 0.656 µM (active) | 0.36 µM (active) | 8.93 µM (inactive) | 5.42 µM (inactive) | 2.68 µM (inactive) | 2.7 µM (inactive) | 7.59 µM (inactive) | 3.92 µM (inactive)
Oc1cccc2cc(Br)cnc12 | 17.7 µM (inactive) | 5.09 µM (inactive) | 31 µM (inactive) | 3.42 µM (inactive) | 5.28 µM (inactive) | 23.1 µM (inactive) | 10 µM (inactive) | 2.37 µM (inactive) | 6.68 µM (inactive) | 4.97 µM (inactive) | 6.03 µM (inactive) | 49.2 µM (inactive) | 4.35 µM (inactive) | 7.96 µM (inactive) | 7.5 µM (inactive) | 28.2 µM (inactive) | 3.18 µM (inactive) | 16.7 µM (inactive) | 27.9 µM (inactive) | 9.14 µM (inactive)
